Results as given in patent publication US20080039496A1, “Method of Modulating Neurite Outgrowth by the use of a Galanin-3 Receptor Antagonist” (priority 2006, published 2008).

Columns and labels:
[1] = system: cultured mouse hippocampal neurons; experiment: Neurite outgrowth assay in cultured mouse hippocampal neurons (Example 2); assay type: cell-based; settings: 100 ng/ml for 24 hours
Procedure: (§1) C57B1/6 or CD1 mouse embryonic (E17.5) hippocampal neurons were purchased from QBM Cell Science (University of Ottawa, Ontario, Canada). Neurons were cultured on poly-D-lysine coated 96 or 24 well plates in serum free Neurobasal medium supplemented with 2% B27, 500 μM L-glutamine, and 1 mM pyruvate. Cells were plated at a density of 20,000 per well on 96 well plates (for neurite outgrowth assays), and at 100,000 per well on […] (for qPCR analysis). For neurite outgrowth assays, neurons were cultured for 2 days and then stimulated for 24 hours. For gene-expression assays, neurons were grown for 8 days and then stimulated with HT-2157 or Vehicle.
(§2) Neurite outgrowth assays were performed using the Cellomics Arrayscan II Vti HCS scanner. Cells were stained using the HitKit™ HCS reagent kit (Cellomics) according to the manufactures specifications. The assay is based on immunofluorescence using an antibody that has been validated to specifically label both neurites and neuronal cell bodies. Briefly, cells were fixed in 3.7% formaldehyde and nuclei stained with Hoechst dye. Cells were then washed in neurite outgrowth buffer and neurites stained with Cellomics' proprietary primary antibody for neurite outgrowth high content screening. After 1 hour of incubation with the primary antibody, the cells were washed again and then incubated with fluorescently labeled secondary antibody solution for 1 hour. Antibody-stained 96-well plates were store at 4° C. in the dark until scanning. Plates were scanned using Cellomics ArrayScan II Vti HCS scanner. The neurite outgrowth assay uses two channels to carry out the scan. Channel 1 detects the Hoechst Dye and is used by the software to identify cells and for automated focusing. Channel 2 detects the FITC fluorescence of the secondary antibody and is used by the software to calculate all data generated in reference to neurites.

NGFβ = experiment: qPCR analysis of NGFβ mRNA in cultured mouse hippocampal neurons; assay type: cell-based; settings: 10 μM, vs vehicle
Procedure: as §1
(§3) RNA was isolated from cultured neurons at the indicated timepoint after HT-2157 treatment. Per well, one RNA preparation was performed using the QIAgen RNeasy kit (Qiagen) according to the manufacturer's specifications. cDNA was generated using TaqMan Reverse transcriptase kit (Applied Biosystems). 2 real-time PCR reactions per RNA/cDNA replication were performed using the ABI prism and SDS 2.1 software. ABI assays on demand (Applied Biosystems) were used to test the mRNA levels of BDNF, NGFβ, and Hes5. The average CT value for each cDNA sample was determined. Data was then normalized to TATA binding protein (TBP) and ΔCT values were determined. mRNA levels were normalized to a vehicle (0.2% DMSO) treated control group.

BDNF = experiment: qPCR analysis of BDNF mRNA in cultured mouse hippocampal neurons; assay type: cell-based; settings: 10 μM, vs vehicle
Procedure: as §1, §3

5-HT transmission = settings: Rowley et al. Br J Pharmacol 2005, P125; cited from earlier work
[2] = system: cryopreserved mouse hippocampal neurons; experiment: Neurite outgrowth assay in cryopreserved mouse hippocampal neurons (Example 1); assay type: cell-based; settings: fixed 48 hr post treatment, various concentrations
Procedure: The cryopreserved mouse hippocampal neurons were plated into poly-L-lysine-coated 96 well plate (BD BioCoat) at 35,000 cells per well in Neurobasal/B27 medium (Invitrogen). 24 hr later the neurons were treated with HT-2157 at various concentrations and were subsequently fixed 48 hr post treatment.
(§4) Following fixation, Cellomics's Neurite Outgrowth reagent kit was used to label cells by a primary antibody specific for neurons. The cell nuclei were labeled by Hoechst 33342. Fluorescently labeled cells were then imaged and analyzed using Cellomics's Neurite Outgrowth and Extended Neurite Outgrowth Bioapplications on the ArrayScan HCS Reader. Images for quantitative HCS analysis were collected on the ArrayScan HCS Reader using a 10× or a 20× microscope objective.

GalR3 = experiment: Western blot analysis of GalR3 expression in NS1 cells; assay type: cell-based; settings: 24 hours after treatment
Procedure: Cultured NS1 cells were homogenized in RIPA buffer (Upstate Biotechnology) containing proteinase inhibitors (Roche). Protein concentrations were determined using the Biorad DC protein assay kit (Biorad). 20 μg of protein-lysate were separated by SDS poly-acrylamide gel electrophoresis (SDS-PAGE) and blotted onto nylon membranes. Western blots were blocked with 5% non-fat dry milk in Tris-buffered saline containing 0.05% Tween 20 (TBS-T) and the primary antibodies applied at 4° Celsius over night. Blots were probed with horseradish peroxidase (HRP) coupled secondary antibodies at room temperature for 1 h, and developed using the SuperSignal® West Pico Chemiluminescent Substrate (Pierce). We used a polyclonal antibody against GalR3 (Alpha Diagnostics). Blots were normalized to β-actin (Sigma).

NS1 cells = experiment: Neurite outgrowth assay in NS1 cells (Example 2); assay type: cell-based; settings: 3 μM and 10 μM
Procedure: Neuroscreen 1 (NS1) Cells (Cellomics Inc.) were cultured on collagen type I coated 75 cm^2 plastic flasks (Biocoat, Becton Dickinson) in a humidified incubator at 37° C. in 5% CO2. Cells were cultured in RPMI complete cell culture medium (Cambrex) supplemented with 10% heat-inactivated horse serum (Invitrogen), 5% heat-inactivated fetal bovine serum (Cellgro), and 2 mM L-glutamine (Cambrex). For expansion, the cells were trypsinized and split at 80% confluence. The cell culture media was changed every 2 to 3 days.
NS1 cells were stimulated with nerve growth factor to induce differentiation into a neuronal phenotype. NS1 cells were harvested as if they were being passaged and then counted using a Coulter counter (Becton Dickinson Coulter Z1). Cells were seeded in 96-well collagen I coated plates at a density of 2000 cells per well in volume of 200 μl. RPMI media was supplemented with 200 ng/ml nerve growth factor (NGFβ, Sigma). NS1 cells were incubated for 72 hours to allow differentiation to a neuronal phenotype. NGFβ was then diluted to 50 ng/ml and the cells were treated with siRNA or HT-2157, respectively.
as §2

5-HT = settings: Rowley et al. Br J Pharmacol 2005, P127; cited from earlier work
Hes5 [3] = experiment: qPCR analysis of Hes5 mRNA in cultured mouse hippocampal neurons; assay type: cell-based; parameters: dose or concentration left out as unconfirmed; settings: vs vehicle
Procedure: as §1, §3

Hes5 [4] = experiment: qPCR analysis of Hes5 expression in NS-1 cells; assay type: cell-based
Procedure: NS-1 cells were plated into collagen I-coated 6 well plate (BD BioCoat) at 150,000 cells per well. 48 hr post NGF treatment at 200 ng/mL NS-1 cells were treated with HT-2157 for 2 hr, 4 hr or 24 hr at concentrations as indicated followed by RNA isolation using Ambion's RNAqueous-4PCR kit. Reverse transcription reactions were performed with Taqman reverse transcription reagents (Applied Biosystems). qPCR was performed on a 7900 real-time PCR machine using Optical 96 well reaction plates (Applied Biosystems). Expression levels were normalized to mouse TBP transcript levels.

[5] = system: PC12 sub-clone, Neuroscreen-1 (NS-1) cells; experiment: Neurite outgrowth assay in NS-1 cells (Example 1); assay type: cell-based; settings: NS-1 cells with 200 ng/mL NGF, fixed 24 hr post treatment, various concentrations; dose-dependent
Procedure: PC12 sub-clone, Neuroscreen-1 (NS-1) cells were plated into collagen I-coated 96 well plate (BD BioCoat) at 5,000 cells per well in RPMI complete medium with 200 ng/mL NGF. 48 hr later NS-1 cells were treated with HT-2157 at various concentrations and were subsequently fixed 24 hr post treatment.
as §4

Row | Molecule | branch points [1] | neurite length [1] | number of neurites per cell [1] | NGFβ mRNA levels (NGFβ) | BDNF mRNA levels (BDNF) | inhibitory effect of Galanin on 5-HT transmission (5-HT transmission) | neurite length [2] | Expression of GalR3 (GalR3) | average neurite length per cell (NS1 cells) | number of neurite branch points per cell (NS1 cells) | number of neurites per cell (neurite count) (NS1 cells) | total neurite length per cell (NS1 cells) | extracellular levels of 5-HT in various brain regions (5-HT) | Hes5 mRNA levels (Hes5 [3]) | mRNA levels of Hes5 (Hes5 [4]; NS1 cells, 2 hours and 4 hours after treatment with 3 or 10 μM, compared to vehicle) | Hes5 mRNA (Hes5 [4]; NS1 cells, 24 hours after treatment) | Hes5 expression (Hes5 [4]; NS-1 cells, treatment at 2 hr and 4 hr, time- and dose-dependent) | neurite branch point [5] | neurite count [5] | neurite length [5]
1 | NGFβ: nerve growth factor β, neurotrophin (Sigma) | increased | increased | increased |  |  |  |  |  |  |  |  |  |  |  |  |  |  |  |  | 
2 | O=C1C(=Nc2cccc(C(F)(F)F)c2)c2ccccc2N1c1ccccc1 [HT-2157] |  |  |  | significantly increased | significantly increased | antagonize | significantly increased | not affected | increase | increase | increase | increase | increase | significantly reduced | reduced | returned to baseline levels | down-regulated | increase | increase | increase
